From the METLIN SMRT retention time set (Domingo-Almenara et al. 2019)

Experiment: gradient 5% acetonitrile 3 min, to 50% in 2 min, to 85% in 15 min, held 3 min, 100 µL/min
Conditions: column: Zorbax Extend-C18 2.1 x 50 mm; eluents: water / acetonitrile, 0.1% formic acid
Summary of the method: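 Retention time was recorded from adduct peaks, which were picked computationally and each inspected manually. Pure standards ran in mixtures of ~100 molecules on HPLC coupled to a quadrupole time-of-flight mass spectrometer, in positive and negative ionization mode, through a Zorbax Extend-C18 column (2.1 × 50 mm, 1.8 μm) at 100 μL/min. Eluents were water and acetonitrile, each with 0.1% formic acid.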

Row | RP-LC retention time | SMILES
1 | 757 s | COCc1c(C(=O)O)nnn1-c1ccc(C)c(C)c1
2 | 1150 s | COc1ccc(/C=C/c2nc(-c3ccc4oc(C)nc4c3)no2)cc1
3 | 606 s | CC(C)NC(=O)c1ccccc1OCC1CCCN(C2CCC2)C1 (stereo unspecified)
4 | 631 s | CCN1C(=O)CN(C(=O)c2cccs2)CC12CCOCC2
5 | 1100 s | COc1ccc(-c2csc(Nc3ccc(Br)cn3)n2)cc1OC
6 | 615 s | COc1ccc(OC)c(S(=O)(=O)N2CCCC(C(=O)NCc3ccccn3)C2)c1 (stereo unspecified)
7 | 764 s | COc1cc(CN2CCc3nc(N4CCC(C)CC4)ncc3C2)ccc1OC(C)C
8 | 960 s | O=C(Cn1cccc(-c2nc(-c3ccc(F)cc3)no2)c1=O)Nc1ccc(F)c(Cl)c1
9 | 789 s | CCCn1cc(CCNS(=O)(=O)c2cccc(C#N)c2)c2cccnc21
10 | 814 s | CC(C)n1c(N2CCN(C(=O)c3c(F)cccc3F)CC2)cc(=O)n(C(C)C)c1=O
11 | 619 s | O=C(CC(c1ccc(F)cc1)N1Cc2ccccc2C1=O)NCCCN1CCCC1 (stereo unspecified)
12 | 723 s | O=C(CCCN1C(=O)c2cccc3cccc(c23)C1=O)Nc1ccon1
13 | 617 s | CC1CCCCN1CCNC(=O)c1cc(S(=O)(=O)N2CCCC2)ccc1Cl (stereo unspecified)
14 | 626 s | Cc1cc(C)c2c(N3CCOCC3)nc(C(=O)N3CCC(C)CC3)nc2n1
15 | 608 s | Cc1nc([C@@H]2CN(C(=O)c3ccc(Cl)s3)C[C@H]2C(N)=O)n[nH]1
16 | 1020 s | CCOC(=O)c1nc(Nc2ccc(C(C)C)cc2)c2ccccc2n1
17 | 868 s | O=C(Cn1ccn2nc(-c3ccccc3)c(CO)c2c1=O)Nc1cc(F)ccc1Cl
18 | 869 s | Cc1nnc2sc(SCc3ccc(Cl)cc3Cl)nn2c1=O
19 | 733 s | Cc1ccc(-c2nc(-c3ccnc(N4CCCC4)c3)no2)s1
20 | 611 s | CCN1CCN(C(=O)c2cc3n(n2)CC(C)(C(=O)NC2CCCCCC2)N(C)C3=O)CC1 (stereo unspecified)
21 | 506 s | Cc1ccsc1CN1CCC(n2c(C)cnc2-c2ccncc2)C1 (stereo unspecified)
22 | 957 s | COc1ccc(OC)c(CNC(=O)C2CCCN(c3nccnc3Oc3ccccc3)C2)c1 (stereo unspecified)
23 | 722 s | CNc1nc(NC(C)C)nc(-n2cnc(SC)n2)n1

Row | RP-LC retention time | SMILES
24 | 897 s | COc1ccc(OC)c(NC(=O)Cn2cccc(-c3nc(-c4ccc(F)cc4)no3)c2=O)c1
25 | 645 s | COc1ccccc1N1CCN(c2ncnc3c2CCC3)CC1
26 | 689 s | CCCCNC(=O)CC1CCN(C(=O)c2[nH]c(C)c(C(=O)OC)c2C)CC1
27 | 737 s | Cc1oc(-c2[nH]ncc2C(=O)N2CCCC2)cc1S(=O)(=O)NCc1ccc(Cl)cc1
28 | 641 s | O=C(c1ccccn1)N1CCC(n2nc(-c3ccsc3)ccc2=O)CC1
29 | 794 s | CC(=O)c1cn(CC(=O)NC(C)c2ccc3c(c2)OCCCO3)c2ccccc12 (stereo unspecified)
30 | 822 s | Cc1cc(S(=O)(=O)Nc2cccn3c(C4CCC4)nnc23)ccc1F
31 | 756 s | Cc1cc(Cl)ccc1NC(=O)N(C)CC1CCOC1 (stereo unspecified)
32 | 632 s | COc1ccc(C2c3sc(=O)[nH]c3SC3C(=O)N(CC(=O)O)C(=O)C32)cc1 (stereo unspecified)
33 | 783 s | CCCc1c(C(=O)O)nnn1-c1cccc(Cl)c1
34 | 774 s | CCc1nnc(-c2cc(NC(=O)c3ccnn3C)c(C)s2)o1
35 | 586 s | OC(c1ccncc1)c1cccc(Cl)c1F (stereo unspecified)
36 | 897 s | CCc1noc(NC(C)=O)c1-c1ccc(C)c(S(=O)(=O)Nc2ccc(C)c(C)c2)c1
37 | 644 s | Cc1nc2ccn(Cc3ccco3)c(=O)c2cc1C(=O)N1CCN(C)CC1
38 | 648 s | O=C(Nc1ccc2c(c1)OCCO2)c1cc(-c2ccccn2)n[nH]1
39 | 706 s | CCOCCCNC(=O)c1ccc2c(c1)CCCN2S(C)(=O)=O
40 | 924 s | COc1ccc(C(=O)Nc2nc(-c3ccc4c(c3)NC(=O)C(C)O4)c(C)s2)cc1 (stereo unspecified)
41 | 998 s | O=C(NCc1ccc2c(c1)OCO2)C1CCCN(c2ncc(-c3cccc(F)c3)cn2)C1 (stereo unspecified)
42 | 832 s | COc1ccc(-c2cc(=O)c3cc(OC(=O)c4ccncc4)ccc3o2)cc1
43 | 811 s | CCn1nccc1C(=O)N1CC(Oc2cccc(-c3nc(C)no3)c2)C1
44 | 606 s | CN1CCC(NC(=O)c2ccc(-c3nnc4ccc(NC(=O)C5CCC5)cn34)cc2)CC1
45 | 724 s | O=C(C1CCN(c2cc(N3CCCCC3)ncn2)CC1)N1CCN(c2ccccc2)CC1

More lines, now with the values behind:

Row | SMILES | RP-LC retention time
46 | O=C1CCN(C(=O)CC2CCCCC2)CCCOCCN1 | 646 s
47 | COc1ccc(C2(C(=O)N3CCC(Cc4ncc(C)n4CC4CC4)C3)CC2)cc1 (stereo unspecified) | 654 s
48 | CC(=O)Nc1ccc(C(=O)NCc2ccc(Br)cc2)c(N2CCOCC2)c1 | 785 s
49 | COC(=O)c1ccccc1NC(=O)N1CCN(Cc2nc(-c3cccc(Cl)c3)oc2C)CC1 | 809 s
50 | Cc1ccc2c(c1)cc(S(=O)(=O)c1ccccc1)c(=O)n2CC(=O)N1CCCCC1 | 919 s
51 | O=C(Nc1ccc(F)cc1Cl)C1CCc2sc(C(=O)N3CCOCC3)cc2C1 (stereo unspecified) | 748 s
52 | Cc1cc(C(=O)N(C)C)c(C)n1-c1ccc(O)cc1 | 661 s
53 | COc1ccc(NC(=O)C2c3ccccc3C(=O)N3CCc4cc(OC)c(OC)cc4C23)c(OC)c1 (stereo unspecified) | 814 s
54 | O=C(NCc1ccc(F)cc1)N1CCC(c2noc(C3CC3)n2)C1 (stereo unspecified) | 751 s
55 | Cc1ccc(-c2csc(Cc3nc(-c4cccc(F)c4)no3)n2)cc1 | 1270 s
56 | O=C1N(c2cccc(F)c2)C(c2ccccc2)C12CCN(Cc1cccc(F)c1O)CC2 (stereo unspecified) | 774 s
57 | Cc1ccnc(NC(=O)C2CC(=O)N(c3n[nH]c4cccc(F)c34)C2)c1 (stereo unspecified) | 602 s
58 | Cc1cc2oc(C(=O)NCCc3nc(-c4ccccc4)no3)c(C)c2cc1C | 1210 s
59 | Clc1cc2c(nn1)Nc1ccccc1S2 | 892 s
60 | CC(C)OCCCNC(=O)C1Cn2cccc2C(=O)N1 (stereo unspecified) | 602 s
61 | O=C(CCNc1c(-c2ccccc2)nc2cnccn12)NCc1ccc(F)cc1 | 687 s
62 | Cc1noc([C@@H]2CC(F)(F)CN2C(=O)c2cnco2)n1 | 667 s
63 | CCOc1ccc2ncc(S(=O)(=O)c3ccc(C)cc3)c(N3CCN(C)CC3)c2c1 | 667 s
64 | COc1ccc(-c2csc(Nc3cccnc3)n2)cc1OC | 620 s
65 | CCc1nc(-c2csc(S(=O)(=O)N3CCCC(C(=O)Nc4cc(C)ccc4C)C3)c2)no1 (stereo unspecified) | 1090 s
66 | Cc1ccc(Sc2ccc(N3CCCC(C(=O)N4CCN(c5ccccn5)CC4)C3)nn2)cc1 (stereo unspecified) | 659 s
67 | COc1ccc(-n2ccc(=O)c(-c3nc(-c4ccc(OC(C)C)cc4)no3)n2)cc1 | 982 s
68 | COc1ccc(-c2cn3c(CC(=O)N4CCN(c5ccccn5)CC4)csc3n2)cc1OC | 1030 s

Row | SMILES | RP-LC retention time
69 | COC(=O)c1cccc(NC(=O)Nc2ccc3c(c2)N(C(=O)c2ccccc2)CC3)c1 | 921 s
70 | CCc1noc(NC(C)=O)c1-c1ccc(C)c(S(=O)(=O)NC2CCCC2)c1 | 808 s
71 | COC(=O)c1c(NCc2ccccc2Br)c2cc(F)ccc2[nH]c1=O | 787 s
72 | CCOC(=O)c1[nH]c(C)c(CCC(=O)N2CCC(C(=O)NCCN3CCN(CC)CC3)CC2)c1C | 577 s
73 | CC(=O)N1CCc2sc(C(=O)NCc3ccccc3Br)cc2C1 | 770 s
74 | Cc1sc(-c2cc(C(F)(F)F)[nH]n2)cc1S(=O)(=O)N1CCN(C2CCCCC2)CC1 | 726 s
75 | Cc1cc(C)c(-c2noc(C)n2)c(NC(=O)c2cccc(Br)c2)n1 | 820 s
76 | COc1ccc2nc(C(=O)NCc3ccccc3)cn2n1 | 772 s
77 | COc1cccc(C(=O)N2CCC3(CC2)NC(=O)c2ccccc2N3C)c1 | 718 s
78 | O=C(c1ccccc1)N1CCC(Oc2cc(N3CCOCC3)ncn2)C1 (stereo unspecified) | 676 s
79 | CN1CC(=O)N(CC(=O)Nc2ccc(-c3nc4ccccc4[nH]3)cc2)c2ccccc2C1=O | 607 s
80 | CC(C)CNC(=O)N1CC(c2nc(-c3ccccc3)no2)C2(CCOCC2)C1 (stereo unspecified) | 858 s
81 | Cn1cc(C(CNC(=O)Nc2cccc(F)c2)c2cccnc2)c2ccccc21 (stereo unspecified) | 660 s
82 | Cn1c(N2CCN(C(=O)c3ccc(F)c(Cl)c3)CC2)cc(=O)n(C)c1=O | 686 s
83 | O=C(COc1ccc(Cl)cc1Cl)Nc1nnc(-c2ccncc2)o1 | 669 s
84 | Cc1ccc(S(=O)(=O)[C@H]2CS(=O)(=O)C[C@@H]2N2CCN(c3ccccc3F)CC2)cc1 | 994 s
85 | O=C(NCc1ccccc1Br)c1cn2c(n1)COCC2 | 680 s
86 | Cc1cc(C)cc(S(=O)(=O)Nc2ccc3c(c2)CCC(=O)N3CC(C)C)c1 | 928 s
87 | CCN1CCN(C(=O)c2nc3ccccn3c2-c2ccc(Cl)cc2)CC1 | 591 s
88 | CCn1c(N2CCN(C(=O)Nc3ccccc3OC)CC2)nc2ccccc21 | 655 s
89 | O=C(NCC(=O)N1CCN(c2ccccc2Cl)CC1)c1c[nH]c2ccccc12 | 785 s
90 | CCC(C)C(NC(=O)c1cccc(OC)c1)C(=O)Nc1nc2ccccc2[nH]1 (stereo unspecified) | 726 s
91 | O=C(Cc1csc(Nc2ncccn2)n1)NCC(F)(F)F | 626 s
